Source: patent US5866588A, “Imidazopyridine derivatives” (British Biotech Pharmaceuticals Ltd., priority 1995, dated 1999)

Experiments:
[1] = tested on: PAF Induced Bronoconstriction; test: PAF Induced Bronoconstriction in the Anaesthetised Guinea Pig; assay type: in vivo, guinea pig (Dunkin-Hartley); conditions: Cavia porcellus, po, 1 h; p.o.; PAF 100 ngkg^-1 i.v. bolus one hour after dosing; read-out: ED50 (PAF induced bronchoconstriction)
Procedure: PAF Induced Bronoconstriction in the Anaesthetised Guinea Pig
(§1) Following oral administration of test compound or vehicle, male Dunkin-Hartley guinea pigs (350-400 g) were anaesthetised by intraperitoneal injection of 60 mgkg^-1 sodium pentobarbitone (Sagatal, May & Baker UK). Through a midline incision of the neck, the trachea was cannulated and connected to a small animal respirator (Harvard, UK) Animals were artificially ventilated at a rate of 30 breaths per minute with a tidal of 8-10 ml to give a resting tracheal inflation pressure of 15 mmHg as measured by a physiological pressure transducer (type P23XL, Spectramed USA) connected to a side arm of the respiratory circuit.
(§2) A jugular vein was cannulated for the administration of a bolus dose of propranolol and for the later administration of bolus PAF. A carotid artery was cannulated for the measurement of arterial blood pressure via a physiological pressure transducer (type P23XL, Spectramed USA). Blood pressure and tracheal inflation pressure were recorded on a thermal array chart recorder (type TA4000, Gould Electronics UK).
Propranolol (1 mgkg^-1 i.v. & 3 mgkg^-1 s.c. Sigma Chemical Co. UK) was administered 10 minutes before PAF in order to prevent the bronchodilatory activity of catecholamines which may be released in response to PAF administration. PAF (100 ngkg^-1 i.v. bolus) was administered at the one hour time point following oral administration of the test compound or vehicle.
Changes in tracheal inflation pressure and blood pressure of drug treated animals were compared with changes from vehicle treated animals and percentage inhibition determined. One dose of test compound was investigated per animal.

[2] = tested on: Histamine Induced Bronchoconstriction; test: Histamine Induced Bronchoconstriction in the Anaesthetised Guinea Pig; assay type: in vivo, guinea pig (Dunkin-Hartley); conditions: p.o.; for ED50: Cavia porcellus, po, 1 h, histamine infusion 10 μgkg^-1 min^-1 one hour after dosing
Description: Histamine Induced Bronchoconstriction in the Anaesthetised Guinea Pig
as §1, with “or vehicle by oral gavage,” for “or vehicle,”, “(Harvard, UK).” for “(Harvard, UK)”, “tidal volume” for “tidal”
as §2, with “of” for “of a bolus dose of”, “infusion” for “later administration”, “histamine.” for “bolus PAF.”
Following a suitable equilibration period, propranolol (1 mgkg^-1 i.v. & 3 mgkg^-1 s.c. Sigma Chemical Co. UK) was administered to inhibit any resulting catecholamine release following histamine administration.
Histamine infusion (10 μgkg^-1 min^-1 at a rate of 10 mlhr^-1 using a perfusion pump type Perfuser securer FT, B. Braun Germany) was started at the one hour time point following oral administration of the test compound or vehicle. Changes in tracheal inflation pressure and blood pressure of drug treated animals were compared with changes from vehicle treated animals and ED50 values determined. One dose of test compound was investigated per animal.

[3] = target: T1, histamine-1 receptors on Hela-S3 cells (Homo sapiens, UniProt P35367); test: Inhibition of [^3 H]-Pyrilamine Binding to Histamine-1 Receptors on Hela-S3 Cells; conditions: 0.5 h; 1 μM test compound; [^3 H]-pyrilamine remaining specifically bound; 37° C., 30 minutes; read-out: % Specific Binding at 1 μM
T1 construct: histamine-1 receptors on Hela-S3 cells (American Type Culture Collection); host or cells: HeLa-S3 cells (intact cell suspension)
T1 sequence (P35367 whole entry): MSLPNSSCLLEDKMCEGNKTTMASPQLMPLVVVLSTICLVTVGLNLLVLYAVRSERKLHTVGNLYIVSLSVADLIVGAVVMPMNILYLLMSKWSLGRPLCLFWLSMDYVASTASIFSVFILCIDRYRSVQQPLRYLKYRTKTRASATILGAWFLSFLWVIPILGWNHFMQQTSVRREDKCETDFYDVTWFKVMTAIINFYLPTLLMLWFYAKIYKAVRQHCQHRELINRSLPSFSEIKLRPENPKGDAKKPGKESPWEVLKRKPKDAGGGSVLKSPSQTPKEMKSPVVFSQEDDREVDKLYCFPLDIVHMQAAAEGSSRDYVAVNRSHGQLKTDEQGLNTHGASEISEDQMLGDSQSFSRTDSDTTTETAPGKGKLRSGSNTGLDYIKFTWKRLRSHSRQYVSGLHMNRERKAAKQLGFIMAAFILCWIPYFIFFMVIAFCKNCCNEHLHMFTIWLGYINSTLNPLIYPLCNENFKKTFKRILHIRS
Procedure: Inhibition of [^3 H]-Pyrilamine Binding to Histamine-1 Receptors on Hela-S3 Cells
The inhibition of [^3 H]-pyrilamine binding to histamine-1 receptors on Hela-S3 cells (American Type Culture Collection) was determined by isotopic labelling and filtration techniques. A suspension of the cells in buffer (25 ml, 0.5% Bovine Serum Albumin, 0.1% sodium azide, phosphate buffered saline (PBS)) was centrifuged at 1000 rpm for 5 minutes in a JOUAN CR 422 centrifuge, collected, resuspended in buffer (25 ml) and spun again. The cells were counted using a haemocytometer and resuspended in buffer to provide a final concentration of 4.5×10^6 cells ml^-1. A portion of the Hela-S3 cell suspension (1 ml) was added to each assay tube containing 25 μl of vehicle (50% DMSO/buffer) or 25 μl of test compound solution (dissolved in DMSO and diluted with sufficient PBS to give a final test concentration of 1 μM) and 25 μl of [^3 H]-pyrilamine (supplied by Amersham International and diluted with PBS to 3 nM). The tubes were mixed, incubated at 37° C. for 30 minutes and then spun at 4° C. at 2000 rpm for 2 minutes. The supernatant was removed and the cells resuspended in buffer (repeated ×2). The cells were suspended in 300 μl of a 2:1 solution of 1M sodium hydroxide and 1% sodium dodecyl sulphate. The tubes were left ovemight before the contents were tranferred to a scintillation vial, treated with 10 ml, OPTIPHASE MP scintillation fluid (OPTIPHASE MP is a trade mark) and the radioactivity counted in a scintillation counter. Non-displacable binding (NDB) was determined using Astemizole (5×10^-5 M) in place of test compounds. Defining the counts for total binding from the vehicle control sample as "TB" and the counts for total binding with antogonist as "TBA" the percentage specific binding (% SB) can be determined from the following equation.

[4] = tested on: PAF-Induced Platelet Aggregation; test: Inhibition of PAF-Induced Platelet Aggregation; assay type: cell-based, rabbit (New Zealand White); conditions: Oryctolagus cuniculus; rabbit platelet-rich plasma, PAF 100 ngml^-1
Procedure: Inhibition of PAF-Induced Platelet Aggregation
Male New Zealand White rabbits (3.0-3.5 kg) were anaesthetised by intravenous administration of sodium pentobarbitone, 18 mg.ml^-1, via a marginal ear vein. The trachea was exposed and connected to a respiratory pump (Harvard UK) to provide artificial ventilation. A carotid artery was exposed and cannulated and the animal was exsanguinated. Whole blood was collected in a syringe containing tri-sodium citrate (3.8% w/v) to a ratio of 1 part citrate:9 parts blood.
Collected blood was centrifuged at 180×g for 15 minutes at room temperature (21° C.) to prepare platelet-rich plasma (PRP). The remaining blood was then centrifuged at 1800×g for 10 minutes at room temperature to obtain platelet poor plasma (PPP).
Platelet count of the PRP was measured using a Technicon H1 blood cell differential analyser (Bayer Diagnostics UK) and adjusted with PPP to obtain a final platelet count of 500,000 platelets per μl of plasma, this being the normal physiological platelet count for rabbits. Corrected PRP was left to equilibrate at room temperature for 30 minutes before use.
Aggregation studies were carried out using a 4-channel aggregometer (PAP-4C, BioData USA) as follows: 400 μl aliquots of PRP were placed in siliconised cuvettes and incubated to 37° C. for 1 to 2 minutes in the heating block of the aggregometer. Baseline (100% aggregation) was set up using PPP (500 μl in a siliconised cuvette). The PRP was placed into a measuring well of the aggregometer, and a stirrer bar was added. The sample was stirred at 1000 rpm. The machine was activated to set the 0% aggregation level. Test compound or vehicle (50 μl) was added to the PRP, where any effects on the baseline was noted. PAF (100 ngml^-1 as 50 μl aliqout) was added to the PRP 3 minutes after test compound or vehicle. Aggregation was measured for a further 4 minutes after PAF addition and the maximum aggregation over the 4 minutes was recorded.
The investigation of different concentrations of test compound was performed in triplicate. Data were expressed as […] of the sample and test compound data were compared to vehicle data to obtain % inhibition of the PAF-induced aggregation from which IC50 values could be determined.
PAF was made up in sterile saline (NaCl 0.9% w/v) containing BSA (0.25% w/v) from an initial stock solution (10 mgml^-1 in EtOH). Test compounds were made up as 1×10^-3 M stock solutions in sterile saline containing molar equivalents of 1N HCl (v/v) or in DMSO.
In the results which follow, a comparison compound A was included. Compound A was prepared as described in EP-A-260613 (G. D. Searle), but is not part of the present invention. As appears from the results of the comparison, compounds of this invention, all of which incorporate a fragment capable of H1 antagonist activity, are observed to show improved PAF antagonist activity over compound A.

Row | Compound | ED50 [1] | ED50 [2] | activity at 1 µM [3] | IC50 [4] | % inhibition (histamine induced bronchoconstriction) ([2]; 10 mg/kg, histamine infusion one hour after dosing)
1 | Cc1nc2cnccc2n1Cc1ccc(C(=O)N(C/C=C/c2cccc(/C(=C/CN3CCCC3)c3ccc(Cl)cc3)n2)C2CCCCC2)cc1 [Example 20, N-Cyclohexyl-4-(1H-2-methylimidazo[4,5-c]pyridin-1-ylmethyl)-N-{3-[6-(3-pyrrolidin-1-yl-1-{4-chlorophenyl}-prop-1E-enyl)-pyridin-2-yl]-prop-2E-enyl}-benzamide] | 4.2 mg/kg | 1 mg/kg |  |  | 
2 | Cc1ccc(/C(=C\CN2CCCC2)c2cccc(/C=C/CN(C(=O)c3ccc(Cn4c(C)nc5cnccc54)cc3)C3CCCCC3)n2)cc1 [Example 4, N-Cyclohexyl-4-(1H-2-methylimidazo[4,5-c]pyridin-1-ylmethyl)-N-{3-[6-(3-pyrrolidin-1-yl-1-{4-tolyl}-prop-1E-enyl)-pyridin-2-yl]-prop-2E-enyl}-benzamide] | 1.55 mg/kg | 0.85 mg/kg | 42% | 167 nM | 
3 | CCN(C/C=C/c1cccc(/C(=C/CN2CCCC2)c2ccc(C)cc2)n1)C(=O)c1ccc(Cn2c(C)nc3cnccc32)cc1 [Example 13, N-Ethyl-4-(1H-2-methylimidazo[4,5-c]pyridin-1-ylmethyl)-N-{3-[6-(3-pyrrolidin-1-yl1-{4-tolyl}-prop-1E-enyl)-pyridin-2-yl]-prop-2E-enyl}-benzamide] | 2.55 mg/kg | 1 mg/kg | 30% | 238 nM | 
4 | Cc1ccc(/C(=C\CN2CCCC2)c2cccc(/C=C/CN(C)C(=O)c3ccc(Cn4c(C)nc5cnccc54)cc3)n2)cc1 [Example 3, N-Methyl-4-(1H-2-methylimidazo[4,5-c]pyridin-1-ylmethyl)-N-{3-[6-(3-pyrrolidin-1-yl-1-{4-tolyl}-prop-1E-enyl)-pyridin-2-yl]-prop-2E-enyl}-benzamide] | 5.8 mg/kg | 0.4 mg/kg | 19% | 1480 nM | 
5 | CCCN(C/C=C/c1cccc(/C(=C/CN2CCCC2)c2ccc(C)cc2)n1)C(=O)c1ccc(Cn2c(C)nc3cnccc32)cc1 [Example 16, N-Propyl-4-(1H-2-methylimidazo[4,5-c]pyridin-1-ylmethyl)-N-{3-[6-(3-pyrrolidin-1-yl-1-{4-tolyl}-prop-1E-enyl)-pyridin-2-yl]-prop-2E-enyl}-benzamide] | 1.55 mg/kg |  | 30% | 130 nM | 46%
